Experimental findings from paper PMC4859609, “Inhibition and Larvicidal Activity of Phenylpropanoids from Piper sarmentosum on Acetylcholinesterase against Mosquito Vectors and Their Binding Mode of Interaction” (PLoS ONE, 2016) are described below.

Each structure is given as a SMILES string. A value given as a limit tells only on which side of the number the result lay.

The test system of data set [1] is blood-starved female Ae. aegypti. The data set is described as follows: Repellent activity (WHO procedure, treated forearm in cage). The following applies: for % repellency: 300 μg/mL. Type of data set: in vivo, Aedes aegypti. As to the method: (§1) This study was carried out according to the method described by WHO standard procedure. Three-day-old blood-starved female of Ae.aegypti, Ae. albopictus and Cx. quinquefasciatus (100 each) were kept in a net cage (23 cm × 23 cm × 23 cm). Hands that had no contact with lotions, perfumes or perfumed soaps were exposed to the mosquito cage. Only 25 cm^2 dorsal side of the skin on each arm was exposed and the remaining area covered by rubber gloves. The tested substance was applied at several dosages, separately in the exposed area of the forearm. Acetone was served as control. The timing of the test depended on whether the tested mosquitoes were day or night biters. Ae.aegypti and Ae. albopictus were tested from 6 am to 9 am hours, while Cx. quinquefasciatus was tested from […] to 7 pm hours. Both control and treated arms were introduced simultaneously into the mosquito cage, and followed by gentle tapping on the sides of the experimental cages to activate the mosquitoes. Each test concentration was repeated four times. The volunteers conducted test for each concentration by inserting the treated and control arms into the same cage for one minute and repeated this action every five minutes. The mosquitoes that landed on the hand were recorded and then shaken off before imbibing any blood. The percentage of repellency was calculated by the following formula, %Repellency=[Ta−Tb/Ta]×100%,where
(§2) Ta: the number of mosquitoes in the control group.
(§3) Tb: the number of mosquitoes in the treated group.

Data set [2] deals with blood-starved female Cx. quinquefasciatus. The data set is described as above. Type of data set: in vivo, Culex quinquefasciatus. As to the method:
as §1, §2, §3

Data set [3] deals with Cx. quinquefasciatus eggs. Kind of data set: Ovicidal activity (egg hatching). The following applies: for mortality at 25 µg/mL: read-out: ovicidal activity (% of egg mortality), 25 μg/mL.
Another data set relates to Ae. aegypti eggs. Kind of data set: Ovicidal activity (egg hatching). The following applies: for mortality at 25 µg/mL: read-out: ovicidal activity (% of egg mortality), 25 μg/mL.
For data set [4], the system named is blood-starved female Ae. albopictus. Kind of data set: Repellent activity (WHO procedure, treated forearm in cage). Type of data set: in vivo, Aedes albopictus. The following applies: for % repellency: 300 μg/mL. As to the method: as §1, §2, §3
Another data set concerns Ae. albopictus eggs. Kind of data set: Ovicidal activity (egg hatching). The following applies: for mortality at 25 µg/mL: read-out: ovicidal activity (% of egg mortality), 25 μg/mL.
A further data set relates to Aedes aegypti larvae. Kind of data set: Larval bioassay (WHO larvicidal procedure), late 3rd or early 4th larvae. The following applies: 24 hours; for dosage that can cause 50% mortality: larvae. As to the method: (§4) All tested insects used for the experiments were obtained from colonies cultured in the laboratory at 27 ± 2°C and 65 ± 5% relative humidity. To determine the susceptibility, three species of adult mosquitoes and larvae of Ae. aegypti, Ae. albopictus and Cx. quinquefasciatus were used as sample and were measured over a period of 1 year (2012–2013) in this study. Each different species was categorized and reared in laboratory as laboratory strains. Ae. aegypti, Ae. albopictus and Cx. quinquefasciatus were collected from cemetery near the Malaysia International Airport KLI, 2011. Mosquito larvae were placed in plastic containers located in cages (23cm x 23cm x 23cm) at laboratory condition with a photoperiod of 13 hours of daylight and 11 hours of darkness for emergence.
(§5) The larval bioassay was performed on late 3rd or early 4th larvae of Ae. aegypti, Ae. albopictus and Cx. quinquefasciatus according to the WHO larvicidal activity standard procedure. 15 mg of asaricin 1, isoasarone 2 and trans-asarone 3 were separately dissolved in 1 mL of acetone as stock solution and several concentrations (4 to 20 μg/mL) were prepared through serial dilution by mixing specific amount of stock solution with 250mL distilled water. Twenty five larvae of Ae. aegypti, Ae. albopictus and Cx. quinquefasciatus were separately introduced into the plastic cups containing appropriate concentrations of asaricin 1, isoasarone 2 and trans-asarone 3. Control was only treated with 1 mL acetone added to 250mL distilled water. Mortality of the tested larvae was recorded at the end of 24 hours. Each treatment was replicated four times.
(§6) %larvae mortality=Number of dead larvae/Total number of introduced larvae×100%

The subject of data set [5] is Culex quinquefasciatus larvae. Described as above. The following applies: for mortality at 9.3 µg/mL: Culex quinquefasciatus, 24 h, read-out: % larvae mortality; for dosage that can cause 50% mortality: larvae; for dosage that can cause 50% mortality / % larvae mortality: 24 hours; for % larvae mortality: ≤ 15 μg/mL. As to the method: as §4, §5, §6
The next data set concerns Aedes albopictus larvae. The data set is described as above. The following applies: 24 hours; for dosage that can cause 50% mortality: larvae. As to the method:
as §4, §5, §6

The target in data set [6] is AChE extracted from Cx. quinquefasciatus larvae (Culex quinquefasciatus, UniProt Q867X2). Kind of data set: Acetylcholinesterase inhibition assay (in vitro, modified Ellman). The data set is classed as biochemical. As to the method: (§7) For this experiments, the larvae were removed and homogenized at 0°C (keeping the homogenized mixture in plastic tube covered with ice) in 0.05 M-phosphate buffer, pH7.5 (KH2PO4-NaOH) (Merck, USA) by using a glass homogenizer with a polytetrafluoroethylene (PTFE) pestle (5%, w/v, homogenate). The homogenates were centrifuged for 20 min at 5°C and 16000 rpm. These supernatants were collected with pipette and kept inside the ice for studying the AChE inhibition biochemical assay.
Chain of AChE extracted from Cx. quinquefasciatus larvae (Culex quinquefasciatus, UniProt Q867X2) (Q867X2 whole entry): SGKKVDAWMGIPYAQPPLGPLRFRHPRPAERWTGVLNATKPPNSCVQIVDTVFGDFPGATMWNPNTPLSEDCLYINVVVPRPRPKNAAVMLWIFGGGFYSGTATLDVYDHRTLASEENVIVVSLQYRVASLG
(§8) To determine the IC50 values, procedures from Ellman et al., 1961 were modified and applied. Electronic multichannel pipette (Eppendorf, USA) was used to transfer exact 10 μL of enzyme solution to each well of a 96-well microtiter plate further mixed with 20 μL of tested compounds in solution form and 150 μL of cold phosphate buffer which were kept in refrigerator 1–4°C. The assay microtiter plates were incubated at 25°C for 10 min. Inhibitors were dissolved in DMSO (Merck, USA) in several concentration and stocks diluted to give a final concentration of 0.1% DMSO (v/v) were added into test well in separated rows. This was followed by adding 20 μL of acetylthiocholine iodide (ACTHI) (Sigma-Aldrich, USA) (0.4 mM) and DTNB (Sigma-Aldrich, USA) (0.3 mM) to enzyme solution to observe the reaction. Yellowish or colorless solution was observed during reaction for 30 minutes at room temperature. Changes in absorbance were recorded by a microplate readers (Synergy H1 Hybrid Multi-Mode Microplate Reader, USA) at 412 nm. Enzyme concentrations used were within the linear range of their toxicity activity.
(§9) %Inhibition=[Acon−Asam/Acon]×100%,where
(§10) Acon: the absorbance of the control
(§11) Asam: the absorbance of the test sample.
(§12) The IC50 was calculated by log-probit analysis using Polo Plus program. Another set of supernatant was loaded with 20 μL of ACTHI and DTNB solution only which served as control. The mean IC50 significant values were statistically determined by comparison of confident interval.

Data set [7] has as its target AChE extracted from Ae. albopictus larvae (Aedes albopictus, UniProt Q2PGF2). The data set is described as above. The data set is classed as biochemical. As to the method:
as §7, §8, §9, §10, §11, §12

The target in data set [8] is AChE extracted from Ae. aegypti larvae (Aedes aegypti, UniProt A4GND7). Described as above. Type of data set: biochemical. As to the method: as §7, §8, §9, §10, §11, §12
Chain of AChE extracted from Ae. aegypti larvae (A4GND7 37-679): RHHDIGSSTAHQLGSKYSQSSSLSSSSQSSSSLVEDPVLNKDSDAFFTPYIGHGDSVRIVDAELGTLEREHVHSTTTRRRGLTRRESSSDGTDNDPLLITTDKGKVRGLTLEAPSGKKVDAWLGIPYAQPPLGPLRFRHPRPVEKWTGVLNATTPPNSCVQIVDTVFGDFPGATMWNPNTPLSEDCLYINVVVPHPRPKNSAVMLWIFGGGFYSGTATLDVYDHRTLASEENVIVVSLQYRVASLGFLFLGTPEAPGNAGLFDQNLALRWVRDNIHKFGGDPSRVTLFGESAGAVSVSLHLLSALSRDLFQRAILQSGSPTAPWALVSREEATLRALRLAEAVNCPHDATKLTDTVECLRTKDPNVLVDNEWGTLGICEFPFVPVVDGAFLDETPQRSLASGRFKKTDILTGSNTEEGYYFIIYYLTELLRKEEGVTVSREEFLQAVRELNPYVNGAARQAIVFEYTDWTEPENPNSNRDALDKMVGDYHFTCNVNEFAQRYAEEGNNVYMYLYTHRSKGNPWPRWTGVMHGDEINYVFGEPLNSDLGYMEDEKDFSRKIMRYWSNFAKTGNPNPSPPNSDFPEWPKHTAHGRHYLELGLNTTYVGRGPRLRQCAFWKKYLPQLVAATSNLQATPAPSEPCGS
The subject of data set [9] is AChE extracted from Cx. quinquefasciatus larvae. The description is as above. Type of data set: biochemical. The following applies: Culex quinquefasciatus; 95% confidence interval in brackets; log-probit. As to the method:
as §7, §8, §9, §10, §11, §12

The mark [10] stands for this setting: Culex quinquefasciatus, 48 h, 48 hours.
Where [11] appears, read: Aedes albopictus, 48 h, 48 hours.
The mark [12] stands for this setting: even at higher dosage of 100 μg/mL.

Chain of AChE extracted from Ae. albopictus larvae (Q2PGF2 37-680): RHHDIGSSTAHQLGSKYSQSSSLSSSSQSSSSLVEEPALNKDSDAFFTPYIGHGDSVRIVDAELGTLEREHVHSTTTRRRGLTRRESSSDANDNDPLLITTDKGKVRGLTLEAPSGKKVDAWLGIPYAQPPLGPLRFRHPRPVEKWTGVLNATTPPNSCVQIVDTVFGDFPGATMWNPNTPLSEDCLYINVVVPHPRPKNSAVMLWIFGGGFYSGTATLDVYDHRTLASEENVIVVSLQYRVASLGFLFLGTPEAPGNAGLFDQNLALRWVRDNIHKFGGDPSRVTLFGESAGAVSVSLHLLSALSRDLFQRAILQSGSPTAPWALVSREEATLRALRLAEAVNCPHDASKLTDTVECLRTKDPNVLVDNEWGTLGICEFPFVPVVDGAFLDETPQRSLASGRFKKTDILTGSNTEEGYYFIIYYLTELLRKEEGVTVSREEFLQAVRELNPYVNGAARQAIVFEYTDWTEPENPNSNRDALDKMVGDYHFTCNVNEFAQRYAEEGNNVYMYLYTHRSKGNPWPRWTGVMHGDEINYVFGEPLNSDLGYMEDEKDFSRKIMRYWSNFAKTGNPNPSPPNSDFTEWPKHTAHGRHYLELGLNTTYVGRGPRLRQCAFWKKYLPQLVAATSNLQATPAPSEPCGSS

In the case of `C=CCc1cc2c(cc1OC)OCO2` [Asaricin 1, asaricin], the “% repellency” value in [1], in data set [2] (300 μg/mL) and in data set [4] was “below 65%” in each case. The “repellent activity (in words)” value in data set [1] (50 to 150 μg/mL), in data set [2] (50 to 150 μg/mL) and in data set [4] (50 to 150 μg/mL) was “very weak” in each case. Further, the mortality at 25 µg/mL is at most 95% in data set [3] (setting [10]); at most 95% with Ae. aegypti eggs (Aedes aegypti, 48 h, 48 hours); at most 95% in the data set on Ae. albopictus eggs (setting [11]). Moreover, the “dosage that can cause 50% mortality” value (in the data set on Aedes aegypti larvae; in [5]; in the data set on Aedes albopictus larvae) was at most 7 µg/mL in each case. Also, the mortality at 9.3 µg/mL in data set [5] was at most 80%. Besides, the “% larvae mortality” value in [5] is “up to 100%”; in data set [5] (listed as asaricin 1), 100%; with Aedes albopictus larvae (≤ 9.3 μg/mL), at most 90%; in the data set on Aedes albopictus larvae (≤ 15 μg/mL), “up to 100%”; in the data set with Aedes albopictus larvae (≤ 15 μg/mL, listed as asaricin 1), 100%. Also, the “Slope ± S.E of log-probit AChE inhibition curve” value in data set [6] is given as 2.50±0.14; in data set [7], 2.25±0.14; in data set [8], 2.07±0.13.
As to `C=CCc1cc(OC)c(OC)cc1OC` [Isoasarone 2, isoasarone], the “% repellency” value in [1] and in data set [4] was “below 55%” in each case. The “repellent activity (in words)” value in data set [1] (50 to 150 μg/mL), in data set [2] (50 to 150 μg/mL) and in data set [4] (50 to 150 μg/mL) was “very weak” each time. The mortality at 20 µg/mL in data set [3] (Culex quinquefasciatus, 48 h, read-out: ovicidal activity (% of egg mortality), 20 μg/mL, 48 hours) was 80 to 90%; in the data set with Ae. aegypti eggs (Aedes aegypti, 48 h, read-out: ovicidal activity (% of egg mortality), 20 μg/mL, 48 hours), 80 to 90%; in the data set on Ae. albopictus eggs (Aedes albopictus, 48 h, read-out: ovicidal activity (% of egg mortality), 20 μg/mL, 48 hours), 80 to 90%. In addition, the mortality at 25 µg/mL in [3] (setting [10]) was at most 95%; with Ae. aegypti eggs (Aedes aegypti, 48 h, 48 hours), at most 95%; in the data set with Ae. albopictus eggs (setting [11]), at most 95%. The “dosage that can cause 50% mortality” value (in the data set with Aedes aegypti larvae; in [5]; with Aedes albopictus larvae) was at most 7 µg/mL in each case. In addition, the mortality at 9.3 µg/mL in [5] was at most 80%. In addition, the “% larvae mortality” value in the data set on Aedes albopictus larvae (≤ 9.3 μg/mL) was at most 90%. Further, the “Slope ± S.E of log-probit AChE inhibition curve” value amounted to 2.29±0.13 in data set [6], 2.57±0.14 in [7] and 2.41±0.15 in [8].
In the case of `C/C=C/c1cc(OC)c(OC)cc1OC` [Trans-asarone 3, trans-asarone], the “repellent activity (in words)” value in data set [1] (in vivo), in [2] (in vivo) and in [4] (in vivo) was “not significant” each time. The “effect on egg hatchability” value (in data set [3] (setting [12]); with Ae. aegypti eggs (setting [12]); in the data set on Ae. albopictus eggs (setting [12])) was “no effect” each time. Besides, the “% larvae mortality” value with Aedes aegypti larvae (≤ 9.3 μg/mL) and with Aedes albopictus larvae (≤ 9.3 μg/mL) was 5–20% in each case. The mortality at 9.3 µg/mL in data set [5] is 5 to 20%. Moreover, the “Slope ± S.E of log-probit AChE inhibition curve” value in data set [6] is 2.46±0.13; in data set [7] it was 2.00±0.16; in data set [8] it was 3.63±0.14. Besides, the “AChE enzyme inhibition IC50” value in data set [9] is 17.4(12.6 to 24.4) μg/mL.
